In US7202085B2, “Control of gene expression in eukaryotic cells” (Calgene LLC, priority 1999, dated 2007):
Several values for one entry are separate records, joined by “and”; a condition that tells them apart may be missing. Equal values may be shown once. Read-outs that look alike come from different tables or passages of the source.

Key:
tra box-GUS reporter = tested on: tra box-GUS reporter
Procedure: Plasmids for transfection were isolated and purified using Megaprep plasmid DNA isolation kit (Qiagen). Carrot protoplasts for transfections were prepared from carrot cell suspension culture and transfected with purified DNA as described (Ulmasov et al., Plant Cell 7:1611–1623, 1995). Briefly, 10 μg of the reporter plasmid and 5 μg of the effector plasmid were incubated with 10^6 protoplasts for five minutes at the room temperature in the presence of polyethylene glycol-calcium solution. After diluting approximately 10-fold with the culture medium, the protoplasts were incubated in the dark for 36 hours either in the presence or absence of the inducer 3-oxohexanoyl-homoserine lactone (OHHL, racemic mixture of the L- and D-isomers, purchased from Sigma Chemical Co., St Louis, Mo.). After incubation, protoplasts were collected by low-speed centrifugation, lysed and the level of GUS activity was measured using fluorometric GUS assay (Jefferson et al., EMBO J. 6:3901–3907, 1987).
Ten μg of the reporter plasmid (pMON53031), and indicated amount of the 35S effector plasmid per reaction was used for transfection in triplicate. […] The “− inducer” and “+ inducer” columns are averages of the GUS activities.
These constructs were tested for background GUS activity and TraR responsiveness in carrot protoplasts.

VP16-TraR [1] = tested on: VP16-TraR
Procedure: Transgenic Arabidopsis plants containing TraA8(3×)-GUS reporter and 35S-VP16-TraR activator genes (pMON53077) were analyzed for induction of GUS activity. […] GUS assays were conducted as described by Jefferson et al. (supra).
In addition, detached leaves incubated for 24 hours in MS medium with or without 100 μM HSL were visualized for induction of GUS activity after staining.

TraR = biological target: T1, TraR (Agrobacterium tumefaciens, UniProt P33905); assay: β-galactosidase reporter assay in yeast (TraA8 element, galactose-inducible TraR); type: cell-based; details: strain YPH499, c1.5 and 6, 3 copies of TraA8 element; 5 hrs growth on galactose; 50 μM C8-HSL
T1 construct: expressed in transfected cells; host or cells: Saccharomyces cerevisiae (strain 204142; YPH499)
T1 sequence (P33905 whole entry): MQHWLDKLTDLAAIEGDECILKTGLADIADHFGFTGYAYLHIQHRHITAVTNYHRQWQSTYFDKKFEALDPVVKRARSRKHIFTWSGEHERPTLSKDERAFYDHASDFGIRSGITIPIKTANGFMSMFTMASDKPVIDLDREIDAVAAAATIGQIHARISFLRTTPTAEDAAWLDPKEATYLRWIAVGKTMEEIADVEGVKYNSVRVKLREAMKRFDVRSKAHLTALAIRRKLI

VP16-TraR [2] = assay: Transient GUS reporter assay in carrot protoplasts with VP16-TraR effector and tra box reporter; type: cell-based, Agrobacterium tumefaciens; set-up: 4, 5, 6 (replicate GUS activities, +inducer): unit not given here
[3] = Table 7 lane 4: TraA8(3X), cl.4(60 μg) + CAT, 12.5 μM C8-AHL
[4] = Table 7 lane 6: TraA8(3X), cl.4(60 μg) +TraM, 12.5 μM C8-AHL
[5] = Table 7 lane 7: TraA8(3X), cl.4(60 μg) +TraS, 12.5 μM C8-AHL
[6] = Table 8 lane 2: TraA8(4X) +CAT, 25 μM C8-HSL
[7] = Table 6 lane 20: TraA9(3X), cl.8 +HA-VP16-TraR, 12.5 μM C8-AHL

## CCCCCC(=O)CC(=O)N[C@H]1CCOC1=O [C8-HSL, 3-oxooctanoyl-L-homoserine lactone]
Tra box-GUS reporter; [3]
  4, 5, 6 (replicate GUS activities, +inducer): 76.6 and 75.1 and 58.1
  +inducer (average GUS activity): 70.0
Tra box-GUS reporter; [4]
  4, 5, 6 (replicate GUS activities, +inducer): 105.0 and 102.1 and 86.8
  +inducer (average GUS activity): 98.0
Tra box-GUS reporter; [5]
  4, 5, 6 (replicate GUS activities, +inducer): 143.6 and 128.8 and 134.8
  +inducer (average GUS activity): 135.7
Tra box-GUS reporter; [6]
  4, 5, 6 (replicate GUS activities, +inducer): 1101.9 and 791.0 and 1071.3
  +inducer (average GUS activity): 988.1
VP16-TraR [1]; detached caulline leaves, 24 hours in MS medium, 100 μM HSL
  histochemical GUS staining: uniform induced activity
VP16-TraR [1]; plant s3553-1
  +Inducer (GUS activity): 556.56
VP16-TraR [1]; plant s3553-2
  +Inducer (GUS activity): 554.08
VP16-TraR [1]; plant s3554-1
  +Inducer (GUS activity): 3101.09
VP16-TraR [1]; plant s3554-2
  +Inducer (GUS activity): 3098.61
VP16-TraR [1]; plant s3559-1
  +Inducer (GUS activity): 599.93
VP16-TraR [1]; plant s3559-2
  +Inducer (GUS activity): 597.45
VP16-TraR [1]; plant s3562-1
  +Inducer (GUS activity): 75.93
VP16-TraR [1]; plant s3562-2
  +Inducer (GUS activity): 73.45
VP16-TraR [1]; plant s3570-1
  +Inducer (GUS activity): 4831.21
VP16-TraR [1]; plant s3570-2
  +Inducer (GUS activity): 4828.73
VP16-TraR [1]; plant s3573-1
  +Inducer (GUS activity): 768.65
VP16-TraR [1]; plant s3573-2
  +Inducer (GUS activity): 766.17
VP16-TraR [1]; plant s3575-1
  +Inducer (GUS activity): 3453.00
VP16-TraR [1]; plant s3575-2
  +Inducer (GUS activity): 3450.52
VP16-TraR [1]; plant s3582-1
  +Inducer (GUS activity): 559.86
VP16-TraR [1]; plant s3582-2
  +Inducer (GUS activity): 557.38
VP16-TraR [1]; plant s3594-1
  +Inducer (GUS activity): 515.77
VP16-TraR [1]; plant s3594-2
  +Inducer (GUS activity): 513.29
VP16-TraR [1]; plant wild-type
  +Inducer (GUS activity): 2.48
TraR
  β-gal activity (chemiluminescent assay): strong induction
VP16-TraR [2]; Table 5 lane 2: tra box (6X), cl.7 +HA-VP16-TraR, 12.5 μM C8-AHL
  4, 5, 6 (replicate GUS activities, +inducer): 933.8 and 1033.2 and 995.1
VP16-TraR [2]; Table 5 lane 4: traA1(3X), cl.35 +HA-VP16-TraR, 12.5 μM C8-AHL
  4, 5, 6 (replicate GUS activities, +inducer): 1896.4 and 1959.7 and 1968.4
VP16-TraR [2]; Table 5 lane 6: traA2(3X), cl.43 +HA-VP16-TraR, 12.5 μM C8-AHL
  4, 5, 6 (replicate GUS activities, +inducer): 2198.3 and 2341.9 and 2304.6
VP16-TraR [2]; Table 5 lane 8: traA3(3X), cl.4 +HA-VP16-TraR, 12.5 μM C8-AHL
  4, 5, 6 (replicate GUS activities, +inducer): 117.3 and 111.1
VP16-TraR [2]; Table 5 lane 10: traA4(3X), cl.23 +HA-VP16-TraR, 12.5 μM C8-AHL
  4, 5, 6 (replicate GUS activities, +inducer): 142.9 and 112.2 and 113.5
VP16-TraR [2]; Table 5 lane 12: traA5(3X), cl.2 +HA-VP16-TraR, 12.5 μM C8-AHL
  4, 5, 6 (replicate GUS activities, +inducer): 21.3 and 18.5 and 21.8
VP16-TraR [2]; Table 5 lane 14: traA6(3X), cl.21 +HA-VP16-TraR, 12.5 μM C8-AHL
  4, 5, 6 (replicate GUS activities, +inducer): 64.8 and 64.7
VP16-TraR [2]; Table 5 lane 16: traA7(3X), cl.15 +HA-VP16-TraR, 12.5 μM C8-AHL
  4, 5, 6 (replicate GUS activities, +inducer): 237.5 and 226.8 and 240.1
VP16-TraR [2]; Table 5 lane 18: traA8(3X), cl.4 +HA-VP16-TraR, 12.5 μM C8-AHL
  4, 5, 6 (replicate GUS activities, +inducer): 828.8 and 874.3 and 960.9
VP16-TraR [2]; Table 5 lane 20: traA9(3X), cl.8 +HA-VP16-TraR, 12.5 μM C8-AHL
  4, 5, 6 (replicate GUS activities, +inducer): 65.4 and 65.3 and 60.5
VP16-TraR [2]; Table 6 lane 2: Tra box(3X), cl.5 +HA-VP16-TraR, 12.5 μM C8-AHL
  4, 5, 6 (replicate GUS activities, +inducer): 1350.6 and 1542.2 and 1835.6
VP16-TraR [2]; Table 6 lane 4: TraA1(3X), cl.35 +HA-VP16-TraR, 12.5 μM C8-AHL
  4, 5, 6 (replicate GUS activities, +inducer): 1426.4 and 1490.9 and 1763.9
VP16-TraR [2]; Table 6 lane 6: TraA2(3X), cl.43 +HA-VP16-TraR, 12.5 μM C8-AHL
  4, 5, 6 (replicate GUS activities, +inducer): 1757.9 and 2255.2 and 2158.0
VP16-TraR [2]; Table 6 lane 8: TraA3(3X), cl.4 +HA-VP16-TraR, 12.5 μM C8-AHL
  4, 5, 6 (replicate GUS activities, +inducer): 106.3 and 96.1
VP16-TraR [2]; Table 6 lane 10: TraA4(3X), cl.23 +HA-VP16-TraR, 12.5 μM C8-AHL
  4, 5, 6 (replicate GUS activities, +inducer): 108.1 and 108.3 and 112.6
VP16-TraR [2]; Table 6 lane 12: TraA5(3X), cl.2 +HA-VP16-TraR, 12.5 μM C8-AHL
  4, 5, 6 (replicate GUS activities, +inducer): 91.6 and 72.7 and 82.6
VP16-TraR [2]; Table 6 lane 14: TraA6(3X), cl.21 +HA-VP16-TraR, 12.5 μM C8-AHL
  4, 5, 6 (replicate GUS activities, +inducer): 1.4 and 1.9 and 6.3
VP16-TraR [2]; Table 6 lane 16: TraA7(3X), cl.15 +HA-VP16-TraR, 12.5 μM C8-AHL
  4, 5, 6 (replicate GUS activities, +inducer): 216.9 and 217.5 and 275.9
VP16-TraR [2]; Table 6 lane 18: TraA8(3X), cl.4 +HA-VP16-TraR, 12.5 μM C8-AHL
  4, 5, 6 (replicate GUS activities, +inducer): 1774.0 and 1839.9 and 1663.3
VP16-TraR [2]; [7]
  4, 5, 6 (replicate GUS activities, +inducer): 307.2 and 197.9 and 183.9
  +inducer (average GUS activity): 229.7
VP16-TraR [2]; Table 6 lane 22: TraA10(3X), cl.17 +HA-VP16-TraR, 12.5 μM C8-AHL
  4, 5, 6 (replicate GUS activities, +inducer): 621.1 and 629.5 and 672.7
VP16-TraR [2]; Table 6 lane 24: TraA-1(3X), cl.14 +HA-VP16-TraR, 12.5 μM C8-AHL
  4, 5, 6 (replicate GUS activities, +inducer): 25.0 and 30.0
VP16-TraR [2]; Table 7 lane 3: TraA8(4X), cl.16 +HA-VP16-TraR, 12.5 μM C8-AHL
  4, 5, 6 (replicate GUS activities, +inducer): 1190.9 and 991.1 and 863.8
VP16-TraR [2]; Table 7 lane 5: TraA8(3X), cl.4(60 μg) +TraR, 12.5 μM C8-AHL
  4, 5, 6 (replicate GUS activities, +inducer): 1867.2 and 1559.0 and 1569.7
VP16-TraR [2]; Table 7 lane 8: TraA8(3X), cl.4(25 μg) + TraR + TraM, 12.5 μM C8-AHL
  4, 5, 6 (replicate GUS activities, +inducer): 13.5 and 9.6 and 12.1
VP16-TraR [2]; Table 7 lane 9: TraA8(3X), cl.4 (25 μg) + TraR + TraS, 12.5 μM C8-AHL
  4, 5, 6 (replicate GUS activities, +inducer): 279.4 and 224.4 and 241.0
VP16-TraR [2]; Table 7 lane 10: TraA8(3X), cl.4 (25 μg) + TraR + CAT, 12.5 μM C8-AHL
  4, 5, 6 (replicate GUS activities, +inducer): 698.2 and 680.1 and 908.4
VP16-TraR [2]; Table 8 lane 3: TraA8(4X) +TraR, 25 μM (row 0/25 μM)
  4, 5, 6 (replicate GUS activities, +inducer): 7034.5 and 8005.8 and 7531.5
